Test results: article PMC11510329, “Molecular Networking, Docking, and Biological Evaluation of Licarin A from Myristica fragrans as a Potential Cancer Chemopreventive Agent” (Molecules, 2024)
pIC50: −log10 of the molar value.

Legend:
[1] = test system: DU-145 prostate cancer cells; assay: Cell viability crystal violet assay; format: cell-based, Homo sapiens; details: rocaglamide at concentrations higher than 6 μM
Description: The cell viability of DU-145 prostate cancer cells was evaluated after treatment with 1, 2, and the positive control rocaglamide using the protocol from a Phospho-NF-kappaBp65 (S468 + S536) and Total In-Cell ELISA Kit (ab207482) (Abcam Inc., Waltham, MA, USA), after initial PhosphoNF-κBp65 translocation steps (Section 4.11).

[2] = test system: DU-145 prostate cancer cells; assay: SRB cell cytotoxicity assay; format: cell-based, Homo sapiens; details: DU-145 human prostate cancer cells
Description: (§1) The antiproliferative effects of 1, the chemopreventive control 2, and the positive control paclitaxel were measured using a sulforhodamine B (SRB) cytotoxicity assay. Briefly, DU-145 prostate cancer cells (5 × 10^4 cells/well) were seeded in a 96-well plate overnight. Then, the cells were treated at different concentrations ranging from 0 to 150 μM with each test compound for 24, 48, and 72 h (Supplementary Figure S7). After being treated, the cells were incubated with cold trichloroacetic acid (20%, 30 min), washed with tap water, stained with SRB (0.4%, 30 min), and washed subsequently with acetic acid (1%). Finally, the unbound dye was solubilized using 200 μL of Tris-base (10 mM) and the absorbance read at 515 nm using a FLUOstar Optima microplate reader (BMG Labtech Inc., Durham, NC, USA). The percent inhibition was determined by using the formula provided in the prior publication.

[3] = SRB cell cytotoxicity assay; format: cell-based, Homo sapiens; details: human, DU-145 prostate cancer cells; DU-145; Supplementary Figure S7; read-out: cytotoxic concentration in vitro (IC50)
Description: as §1

[4] = test system: Hepa1c1c7 mouse hepatoma cells; assay: Cell oxidative stress real-time dose–response assay (ROS, DCFH-DA); format: cell-based
Description: A reactive oxygen species (ROS) assay was performed following a previously described procedure. The generated intracellular levels of ROS were measured using the fluorescent probe 2′,7′-dichlorodihydrofluorescein diacetate (DCFH-DA). Hepa1c1c7 mouse hepatoma cells were seeded in a 96-well plate, treated with 1, 2, or the positive control rocaglamide, followed by 5 h incubation at 37 °C with 5% CO2. Subsequently, cells were incubated with H2O2 (1.25 mM) and FeSO4 for 30 min at 37 °C. Later, the fluorescent probe DCFH-DA was added to determine intracellular ROS. Fluorescence was measured using a FLUOstar Optima fluorescence plate reader (BMG Labtech Inc., Durham, NC, USA) at an excitation wavelength of 485 nm and emission wavelength of 530 nm. All treatments performed in triplicate were representative of at least two different experiments.

zebrafish (Danio rerio) = assay: Toxicity assay in zebrafish; details: for morphological changes / developmental abnormalities: tamoxifen 50 μM at 48 h, 1 100 μM at 48 h, 2 100 μM at 24 h
Description: Animals were provided by the Department of Neuroscience at The Ohio State University (OSU) (OSU IACUC-approved animal protocol number 2014A00000006-R1-AR1). Zebrafish embryos were housed in aquaculture water at 28 °C with a 14 h/10 h light/dark cycle. After 24 h post fertilization (hpf), groups of random embryos were exposed to different concentrations (0, 50, or 100 μM, n = 25) for 24 and 48 h. Then, images of the zebrafish were taken using an Axiovert 40 CFL Zeiss microscope and ProgRes C10 plus camera. Morphological changes in zebrafish development were determined and recorded.

[5] = test system: phosphoNF-κBp65 in DU-145 prostate cancer cells; assay: PhosphoNF-κBp65 assay (In-Cell ELISA); format: cell-based, Homo sapiens
Description: PhosphoNF-κBP65 phosphorylation levels were evaluated using the protocol from an Abcam Phospho-NF-kappaBp65 ([…] + […]) + Total In-Cell ELISA Kit (ab207482) (Abcam Inc., Waltham, MA, USA). The effects of 1, the natural product chemopreventive positive control 2, and a rocaglamide positive control in the PhosphoNF-κBp65 assay activity were measured using a FLUOstar Optima plate reader. DU-145 or Hepa1c1c7 cells (5 × 10^4 cells/well) were seeded in a white 96-well plate and treated (0-150 μM) for 5 h. Afterwards, luminescence was measured using a FLUOstar Optima plate reader.

[6] = test system: HT-29 human colon cancer cells; details: nanomolar range; cited from earlier work

COc1ccc([C@@]23Oc4cc(OC)cc(OC)c4[C@]2(O)[C@H](O)[C@H](C(=O)N(C)C)[C@H]3c2ccccc2)cc1 [Rocaglamide, reference compound]
cell viability (crystal violet) [1]: maintained the same level of cell viability

C/C=C/c1cc(OC)c2c(c1)[C@H](C)[C@@H](c1ccc(O)c(OC)c1)O2 [compound 1, licarin A]
growth inhibitory activity [2]: did not produce any discernible growth inhibitory activity
pIC50 [3]: 4.00
cell viability (crystal violet) [1]: remained alive and proliferated, but in a controlled manner
effective concentration for oxidative control ([4]; Hepa1c1c7): 48 nM
% survival (zebrafish (Danio rerio); 48 h exposure, tamoxifen 50 μM, 1 and 2 100 μM, mean ± SEM): 100%
morphological changes / developmental abnormalities (zebrafish (Danio rerio)): lack of morphological changes
effective concentration for inducing NF-κB phosphorylation [5]: 9.6 nM

O=C(/C=C/c1ccc(O)cc1)c1ccc(O)cc1O [compound 2, Isoliquiritigenin, reference compound]
duration of reduction in cellular stress (time until activity degrades) ([4]; 48 nM, assay duration 60 min): 30 min
% of hatching (zebrafish (Danio rerio); 24 h exposure, tamoxifen 50 μM, 1 and 2 100 μM, mean ± SEM): 100%
morphological changes / developmental abnormalities (zebrafish (Danio rerio)): curved spines or shortened tails

C/C=C/c1cc(OC)c2c(c1)[C@@H](C)[C@H](c1cc(OC)c(OC)c(OC)c1)O2 [licarin C]
cytotoxicity [6]: potently cytotoxic
